Results as given in patent US20080226682A1, “Immunoactive Compositions for Improved Oral Delivery of Vaccines and Therapeutic Agents” (PerOs Systems Technologies, Inc., priority 2007, published 2008).
“Also recorded” adds a separate entry of the source.

Tests used:
[1] = system: Sheep PBMC; assay: Immune cell proliferation, tetrazolium colorimetric reading (Stimulation Index)
[2] = system: bovine immune cells; assay: Leukocyte mitogenic response (BrdU-based ELISA, stimulation index); type: cell-based; conditions: purified lectin at mitogen concentration (5-40 μg/mL), day 4
[3] = system: equine immune cells; assay: as above; type: cell-based; conditions: purified lectin at mitogen concentration (5-40 μg/mL), day 4
[4] = system: Mouse Splenocytes; assay: Immune cell proliferation, tetrazolium colorimetric reading (Stimulation Index); type: cell-based, BALB/c mice
[5] = system: Trout HK Cells; assay: as above; type: cell-based
[6] = system: Swine PBMC; assay: as above
[7] = system: Feline PBMC; assay: as above
[8] = system: human immune cells; assay: Leukocyte mitogenic response (BrdU-based ELISA, stimulation index); type: cell-based; conditions: purified lectin at mitogen concentration (5-40 μg/mL), day 4
[9] = system: Chicken PBMC; assay: Immune cell proliferation, tetrazolium colorimetric reading (Stimulation Index)
[10] = system: Calf PBMC; assay: as above
[11] = system: salmon immune cells; assay: Leukocyte mitogenic response (BrdU-based ELISA, stimulation index); type: cell-based; conditions: purified lectin at mitogen concentration (5-40 μg/mL), day 4
[12] = system: feline immune cells; assay: as above; type: cell-based; conditions: purified lectin at mitogen concentration (5-40 μg/mL), day 4
[13] = system: swine immune cells; assay: as above; type: cell-based; conditions: purified lectin at mitogen concentration (5-40 μg/mL), day 4
Text: Lymphocytes are a representative immune system prototypic cell that may be used in in vitro assays for immunological effects of lectins, saponins and other components of natural plant or animal products. Exemplary lymphocytes for representative target species may be obtained and used in the Examples disclosed herein. The effects of various compositions on lymphocyte proliferation is examined using a standard tetrazolium based colorimetric assay (MTT). An Alamar blue-based colorimetric assay gave equivalent results to [^3H]-thymidine incorporation assay. The MTT colorimetric assay has also been used in lymphocyte proliferation assays using chicken splenocytes. These and other known assays may be utilized in the methods disclosed herein.
In one non-limiting example, cells from anterior fish kidney are obtained by forcing the aseptically removed tissue through a 100 μm cell strainer into L-15 medium supplemented with 2% fetal bovine serum (FBS), 100 U mL^−1 penicillin, 100 μg mL^−1 streptomycin, and 10 U mL^−1 sodium heparin (Processing medium, PM). The single-cell suspension is removed from the settled tissue fragments and cells are pelleted by centrifugation at 500×g for 10 min at 4° C. […]
The number of viable kidney or blood leukocytes isolated from each fish is determined by trypan blue exclusion (0.1% trypan blue in PM), and the cells are pelleted as described above.
Mitogen concentrations used to stimulate the isolated leukocytes are as follows: 10 μg mL^−1 SBA, 10 μg mL^−1 PHA-E or PHA-L, 5 μg mL^−1 LBL, 20 μg mL^−1 LCA or LOA, 10 μg mL^−1 ConA, 40 ug mL^−1 PSA and 5 μg mL^−1 PNA. […] The mitogenic response is measured on the fourth day of incubation post-mitogen stimulation using a BrdU-based ELISA at room temperature as described (Gauthier, D. T. 2003). Stimulation index (SI) values are calculated as the replicate mean optical density for a given set of mitogen-treated leukocytes divided by the replicate mean optical density of the associated mitogen free (control) leukocytes. […]

Substance: SBA: Soybean (Glycine max) Lectin
- lowest concentration of lectins required for stimulation response above background [1]: 50 µg/mL
- Immunomodulatory effect (stimulation index class) [2]: + (between 1 and 4.9 is assigned a value of + (weak mitogen))
- Immunomodulatory effect (stimulation index class) [3]: −− (<1 is assigned a value of −− (anti-mitogenic))
- lowest concentration of lectins required for stimulation response above background [4]: Negative
- lowest concentration of lectins required for stimulation response above background [5]: refractory; also recorded: Negative
- lowest concentration of lectins required for stimulation response above background [6]: 50 µg/mL
- lowest concentration of lectins required for stimulation response above background [7]: 1 μg/ml ug/ml
- Immunomodulatory effect (stimulation index class) [8]: ++ (between 5 and 9.9 is assigned a value of ++ (moderate mitogen))
- lowest concentration of lectins required for stimulation response above background [9]: Negative
- lowest concentration of lectins required for stimulation response above background [10]: 50 µg/mL
- Immunomodulatory effect (stimulation index class) [11]: +++ (≧10 is assigned a value of +++ (strong mitogen))
- Immunomodulatory effect (stimulation index class) [12]: + (between 1 and 4.9 is assigned a value of + (weak mitogen))
- Immunomodulatory effect (stimulation index class) [13]: −− (<1 is assigned a value of −− (anti-mitogenic))
